# Assay results taken from the SangsterLogP compilation.
row,Structure (SMILES),logP
1,CCC(=O)O[C@]1(C(=O)CCl)[C@@H](C)C[C@H]2[C@@H]3CCC4=CC(=O)C=C[C@]4(C)[C@@]3(F)C(=O)C[C@@]21C,3.46
2,CCC(=O)O[C@]1(C(=O)CCl)[C@@H](C)C[C@H]2[C@@H]3CCC4=CC(=O)C=C[C@]4(C)[C@H]3[C@@H](O)C[C@@]21C,3.34
3,CCCC(=O)O[C@]1(C(=O)CCl)[C@@H](C)C[C@H]2[C@@H]3CCC4=CC(=O)C=C[C@]4(C)[C@@]3(F)[C@@H](O)C[C@@]21C,3.63
4,CCCC(=O)O[C@]1(C(=O)CO)CC[C@H]2[C@@H]3CCC4=CC(=O)CC[C@]4(C)[C@H]3[C@@H](O)C[C@@]21C,3.18
5,C[C@H]1C[C@H]2[C@@H]3CCC4=CC(=O)C=C[C@]4(C)[C@@]3(F)[C@@H](O)C[C@]2(C)[C@@]1(O)C(=O)CCl,2.48
6,C[C@H]1C[C@H]2[C@@H]3CCC4=CC(=O)C=C[C@]4(C)[C@@]3(F)C(=O)C[C@]2(C)[C@@]1(O)C(=O)CCl,2.61
7,CC(=O)[C@@]1(O)[C@@H](C)C[C@H]2[C@@H]3CCC4=CC(=O)C=C[C@]4(C)[C@@]3(F)[C@@H](O)C[C@@]21C,2.35
8,C[C@]12C=CC(=O)C=C1CC[C@H]1[C@@H]3CC[C@](O)(C(=O)CO)[C@@]3(C)C[C@H](O)[C@@]12F,1.51
9,CCC(=O)O[C@]1(C(=O)CO)CC[C@H]2[C@@H]3CCC4=CC(=O)CC[C@]4(C)[C@H]3[C@@H](O)C[C@@]21C,2.7
10,CCCCC(=O)OCC(=O)[C@@]1(OC(=O)CCCC)[C@@H](C)C[C@H]2[C@@H]3CCC4=CC(=O)C=C[C@]4(C)[C@@]3(F)[C@@H](O)C[C@@]21C,5.26
11,CC(=O)O[C@]1(C(=O)CO)CC[C@H]2[C@@H]3CCC4=CC(=O)CC[C@]4(C)[C@H]3C(=O)C[C@@]21C,2.45
12,CCC(=O)OCC(=O)[C@@]1(O)CC[C@H]2[C@@H]3CCC4=CC(=O)CC[C@]4(C)[C@H]3[C@@H](O)C[C@@]21C,2.8
13,CCCC(=O)O[C@]1(C(=O)CCl)[C@@H](C)C[C@H]2[C@@H]3CCC4=CC(=O)C=C[C@]4(C)[C@@]3(F)C(=O)C[C@@]21C,3.76
14,CCC(=O)O[C@]1(C(=O)CCl)[C@@H](C)C[C@H]2[C@@H]3CCC4=CC(=O)C=C[C@]4(C)[C@H]3C(=O)C[C@@]21C,3.3
15,CC12CCC(=O)C=C1CCC1C3CCC(O)(C(=O)CO)C3(C)CC(=O)C12F (centres undefined),1.37
16,CCC(=O)O[C@]1(C(=O)CBr)[C@@H](C)C[C@H]2[C@@H]3CCC4=CC(=O)C=C[C@]4(C)[C@@]3(F)C(=O)C[C@@]21C,3.55
17,CCC(=O)O[C@]1(C(C)=O)[C@@H](C)C[C@H]2[C@@H]3CCC4=CC(=O)C=C[C@]4(C)[C@@]3(F)C(=O)C[C@@]21C,3.09
18,CCCCC(=O)OCC(=O)[C@@]1(O)CC[C@H]2[C@@H]3CCC4=CC(=O)CC[C@]4(C)[C@H]3[C@@H](O)C[C@@]21C,3.62
19,CC(=O)OC1(C(=O)CO)CCC2C3CCC4=CC(=O)C=CC4(C)C3C(=O)CC21C (centres undefined),2.43
20,CCCCC(=O)O[C@]1(C(=O)CO)CC[C@H]2[C@@H]3CCC4=CC(=O)C=C[C@]4(C)[C@H]3[C@@H](O)C[C@@]21C,3.82
21,C[C@]12C[C@H](O)[C@H]3[C@@H](CCC4=CC(=O)CC[C@@]43C)[C@@H]1CC[C@@H]2C(=O)CO,2.06
22,CCCC(=O)OCC(=O)[C@@]1(O)CCC2C3CCC4=CC(=O)CC[C@]4(C)C3C(O)C[C@@]21C (some centres undefined),2.91
23,C[C@]12C=CC(=O)C=C1CC[C@@H]1[C@@H]2[C@@H](O)C[C@@]2(C)[C@H]1CC[C@]2(O)C(=O)CO,1.58
24,CCCCC(=O)O[C@]1(C(=O)CO)CC[C@H]2[C@@H]3CCC4=CC(=O)CC[C@]4(C)[C@H]3[C@@H](O)C[C@@]21C,3.79
25,CCCCC(=O)OCC(=O)[C@@]1(O)[C@@H](C)C[C@H]2[C@@H]3CCC4=CC(=O)C=C[C@]4(C)[C@@]3(F)[C@@H](O)C[C@@]21C,3.87
26,CCCC(=O)OCC(=O)C1(O)C(C)CC2C3CCC4=CC(=O)C=CC4(C)C3(F)C(O)CC21C (centres undefined),3.55
27,CCC(=O)O[C@]1(C(=O)CCl)[C@@H](C)C[C@H]2[C@@H]3CCC4=CC(=O)C=C[C@]4(C)[C@@]3(Cl)[C@@H](O)C[C@@]21C,3.28
28,CCC(=O)OCC(=O)[C@@]1(O)[C@@H](C)C[C@H]2[C@@H]3CCC4=CC(=O)C=C[C@]4(C)[C@@]3(F)[C@@H](O)C[C@@]21C,3.06
29,CCC(=O)O[C@]1(C(=O)CCl)[C@@H](C)C[C@H]2[C@@H]3CCC4=CC(=O)C=C[C@]4(C)[C@@]3(F)[C@@H](O)C[C@@]21C,3.18
